Data from paper PMC9861386, “N-Heterocyclic Carbene-Iridium Complexes as Photosensitizers for In Vitro Photodynamic Therapy to Trigger Non-Apoptotic Cell Death in Cancer Cells” (Molecules, 2023).
Like-named read-outs stand apart in the source and are kept apart here.

Columns and labels:
[1] = system: T24 bladder cancer cells; assay: MTT cell viability, 72 h, dark or 458 nm irradiation; assay type: cell-based, human; conditions: for GI50: 72 h, MTT
Protocol: (§1) For all biology experiments, the compounds were solubilized in DMSO to reach a final fixed concentration equal to 0.1% v/v to avoid cytotoxicity caused by DMSO [89]. The results are normalized to controls (0.1% v/v DMSO). Depending on the cell type, approximatively 1000 to 10,000 cells/cm^2 were seeded in 48-well plates for MTT, ATP and GSH assays and 60 mm Petri dishes for Western blots. Cells were allowed to attach overnight and then incubated for 4 h with the different complexes (in the dark), then irradiated for 10 min, followed by an incubation in the dark up to 72 h.
(§2) Irradiation was conducted using an in-house device: a series of blue light LEDs selected according to the absorption spectra of the compounds at a 458 nm wavelength with an emitted power of 9.6 watts. The absorbed energy, or irradiance, was measured at 458 nm with a Thorlabs Optical Power Meter PM100A at 5 and 10 cm distance between the cell layer and the light source and expressed as mW/cm^2.
(§3) A tetrazolium-based MTT reagent (3-(4,5-dimethylthiazol-2-yl)-2,5-diphenyltetrazolium bromide) was used to determine cell viability, as previously described. After 72 h of treatment at 37 °C and 5% CO2, cells were incubated with 25 μL MTT solution (5 mg/mL; Sigma-Aldrich) for 4 h. After solubilization with 500 μL of lysis buffer (DMSO), formazan was quantified by spectrophotometry with a microplate reader at 570 nm absorbance (ClarioSTAR, BMG LabTech, Champigny-sur-Marne, France). GI50 values corresponding to the concentration that caused 50% inhibition of cell proliferation were calculated from dose–response curves obtained by nonlinear regression analysis. All results were calculated from data obtained in at least three independent experiments.

[2] = system: PC-3 prostate cancer cells; assay: as above; assay type: cell-based, human; conditions: for GI50: 72 h, MTT
Protocol: as §1, §2, §3

[3] = system: A549 lung cancer cells; assay: as above; assay type: cell-based, human; conditions: for GI50: 72 h, MTT
Protocol: as §1, §2, §3

[4] = system: HeLa cervix cancer cells; assay: as above; assay type: cell-based, human; conditions: for GI50: 72 h, MTT
Protocol: as §1, §2, §3

[5] = system: MCF7/FasR breast cancer cells; assay: as above; assay type: cell-based, human; conditions: for GI50: 72 h, MTT
Protocol: as §1, §2, §3

[6] = Octanol–water partition coefficient, shake-flask method; assay type: physicochemical; conditions: n-octanol/water, UV absorbance 260 nm
Protocol: Lipophilicities of all complexes have been measured by the classical shake-flask method, using UV absorption. The Log p values range from -0.063 to 0.861 in increasing order –0.063 (4a), 0.035 (4d), 0.519 (4f), 0.581 (4c), 0.842 (4b), 0.847 (4e) and 0.861 (4g).
The octanol–water partition coefficients (P) of 4a to 4g were determined using a shake-flask method. Water (100 mL, distilled after milli-Q purification) and n-octanol (100 mL, Sigma-Aldrich, St. Louis, MO, USA, ACS spectrophotometric grade, ≥99%) were shaken together for 24 h to allow saturation of both phases. Stock solutions of the […] compounds (50 μM) were prepared in the aqueous phase and aliquots (1 mL) of each of these stock solutions were then added to an equal volume of the n-octanol phase. The resultant biphasic solutions were mixed for 1 h and then centrifuged (3000× g, 5 min) (Eppendorf Centrifuges 5415R and 5804R) to separate the phases. The concentrations of the complexes in the organic and aqueous phases were then determined using UV absorbance spectroscopy (260 nm). Log P was defined as the logarithm of the ratio of the concentrations of the studied complex in the organic and aqueous phases (Log P = Log {[Ir(org)]/[Ir(aq)]}; values reported are the means of at least two separate determinations).

[7] = system: MCF7/FasR and MCF7/FasR/Bcl-xL cells; assay: GSH quantification (GSH-Glo); assay type: cell-based, human; conditions: complex 4a all doses with 458 nm irradiation; TNFα 100 ng/mL; 72 h
Protocol: ATP and glutathione (GSH) contents were measured with the Promega CellTiter-Glo (Cat#G7570) and GSH-Glo (cat#6911) luminescent assays, respectively, according to the manufacturer’s recommendations.
Figure 13 Evaluation of apoptotic biomarkers. MCF7/FasR and MCF7/FasR/Bcl-xL cells were irradiated at 458 nm in presence of the indicated concentration of complex 4a or treated with […] TNFα for 72 h. (A) Cytosolic extracts from MCF7/FasR and MCF7/FasR/Bcl-xL cells were separated by SDS-PAGE and probed with anti-PARP, anti-caspase-7 and anti-caspase-8. Migrations indicated are: full-length PARP p113, cleaved PARP p89, full-length caspase-7 and full-length caspase-8. (B) MTT, ATP and GSH assays were evaluated in duplicate samples. Data are expressed as percent (%) of untreated cells and are the means of 3 independent experiments (***, p < 0.0001, NS, not significant).

[8] = GI50 non-irradiated / GI50 irradiated

CC(C)[n+]1ccn2[c]1[Ir-3]13([c]4ccccc4-c4cccc[n+]41)([c]1ccccc1-c1cccc[n+]13)[c]1n(cc[n+]1C(C)C)C2.F[P-](F)(F)(F)(F)F [Complex 4a]
GI50 ([1]; 458 nm irradiation 10 min, read-out: GI50 T24 Blue): 82 nM | PI T24 [1, 8]: 3.5 | SI vs MC3T3, T24 Blue ([1]; blue light, GI50 MC3T3 / GI50 T24): 21.2 | SI vs NIH, T24 Blue ([1]; blue light, GI50 NIH-3T3 / GI50 T24): 34.0 | GI50 ([1]; dark, read-out: GI50 T24 Dark): 288 nM | SI vs MC3T3, T24 Dark ([1]; dark, GI50 MC3T3 / GI50 T24): 8.5 | SI vs NIH, T24 Dark ([1]; dark, GI50 NIH-3T3 / GI50 T24): 12.7 | GI50 ([2]; 458 nm irradiation 10 min, read-out: GI50 PC-3 Blue): 57 nM | PI PC-3 [2, 8]: 4.1 | SI vs MC3T3, PC-3 Blue ([2]; blue light, GI50 MC3T3 / GI50 PC-3): 30.5 | SI vs NIH, PC-3 Blue ([2]; blue light, GI50 NIH-3T3 / GI50 PC-3): 48.9 | GI50 ([2]; dark, read-out: GI50 PC-3 Dark): 233 nM | SI vs MC3T3, PC-3 Dark ([2]; dark, GI50 MC3T3 / GI50 PC-3): 10.6 | SI vs NIH, PC-3 Dark ([2]; dark, GI50 NIH-3T3 / GI50 PC-3): 15.8 | GI50 ([3]; 458 nm irradiation 10 min, read-out: GI50 A549 Blue): 107 nM | PI A549 [3, 8]: 3.3 | SI vs MC3T3, A549 Blue ([3]; blue light, GI50 MC3T3 / GI50 A549): 16.3 | SI vs NIH, A549 Blue ([3]; blue light, GI50 NIH-3T3 / GI50 A549): 26.1 | GI50 ([3]; dark, read-out: GI50 A549 Dark): 355 nM | SI vs MC3T3, A549 Dark ([3]; dark, GI50 MC3T3 / GI50 A549): 6.9 | SI vs NIH, A549 Dark ([3]; dark, GI50 NIH-3T3 / GI50 A549): 10.3 | GI50 ([4]; 458 nm irradiation 10 min, read-out: GI50 HeLa Blue): 525 nM | PI HeLa [4, 8]: 2.5 | SI vs MC3T3, HeLa Blue ([4]; blue light, GI50 MC3T3 / GI50 HeLa): 3.3 | SI vs NIH, HeLa Blue ([4]; blue light, GI50 NIH-3T3 / GI50 HeLa): 5.3 | GI50 ([4]; dark, read-out: GI50 HeLa Dark): 1290 nM | SI vs MC3T3, HeLa Dark ([4]; dark, GI50 MC3T3 / GI50 HeLa): 1.9 | SI vs NIH, HeLa Dark ([4]; dark, GI50 NIH-3T3 / GI50 HeLa): 2.8 | GI50 ([5]; 458 nm irradiation 10 min, read-out: GI50 MCF7 Blue): 50 nM | PI MCF7 [5, 8]: 4.3 | SI vs MC3T3, MCF7 Blue ([5]; blue light, GI50 MC3T3 / GI50 MCF7): 34.8 | SI vs NIH, MCF7 Blue ([5]; blue light, GI50 NIH-3T3 / GI50 MCF7): 55.8 | GI50 ([5]; dark, read-out: GI50 MCF7 Dark): 213 nM | SI vs MC3T3, MCF7 Dark ([5]; dark, GI50 MC3T3 / GI50 MCF7): 11.5 | SI vs NIH, MCF7 Dark ([5]; dark, GI50 NIH-3T3 / GI50 MCF7): 17.2 | Log P [6]: –0.063 | level of reduced GSH [7]: decreased
